# Laboratory results: patent US20250270170A1, “2,3-DIMETHOXY-5-METHYL-1,4-BENZOQUINONE ALKYL ALCOHOL DERIVATIVE AND USE THEREOF” (BEIJING ANJIANXI BIO-MEDICAL TECHNOLOGY CO., LTD., priority 2021, published 2025)
# Tests used:
# [1] = tested on: NCI-H460 cells; assay: Flow cytometry for cell cycle detection, NCI-H460; type: cell-based, human
# Method: (1) Cells were inoculated in a 6-well plate. When about 50% of the cells were adherent and fused, the compound of formula (I) at a concentration of 0 μM, 10 μM, 30 μM, and 90 μM were added, respectively. The plate was placed in an incubator at 37° C. with 5% CO2 to continue culturing, and three time points were set, which were 24 h, 48 h and 72 h, respectively.
# (2) After reaching the designated time point, the cell culture plate was taken out from the incubator, and placed in a biological safety cabinet. A 4 ml centrifuge tube was taken and marked. The supernatant in each well was pipetted out and added to the corresponding 4 ml centrifuge tube. The cells were gently washed with PBS, and the PBS was added to the corresponding centrifuge tube. An appropriate amount of trypsin was added to each well to digest the cells. When the cells were digested to a moderate degree, the old culture medium from the centrifuge tube was added to the corresponding well. The cells were gently pipetted with apipette to form a single-cell suspension, which was pipetted back into the original centrifuge tube. The tube was immediately centrifuged at 1500 rpm for 5 minutes. Then, the supernatant was discarded and the precipitate was retained.
# (3) 2 ml of pre-chilled PBS was added to the centrifuge tube, and centrifuged again at 1500 rpm for 5 minutes. The supernatant was discarded, and the cell debris was removed.
# (4) 1 ml of 75% ethanol was added while pipetting the cells, to make the cells appear as single as possible. Then, the cells were fixed at 4° C. overnight or stored at −20° C. for long-term storage (can be stored for 1 week).
# (5) The fixed cells were taken out, and centrifuged at 1000 rpm for 5 minutes. The ethanol was discarded, and pre-chilled PBS was added to wash the cells. Then, the cells were centrifuged at 1000 rpm for 5 min to remove the residual ethanol on the cells.
# (6) A cell cycle detection kit from Wuhan Promoter Biology Co., Ltd. was used. 100 μl of RNaseA was added, and incubated in a 37° C. water bath for 30 minutes.
# (7) 400 μl of PI was added and mixed well, and incubated at 4° C. in dark for 30 minutes.
# (8) The cell cycle was detected by upflow cytometry.
# [2] = tested on: ICR mice; assay: Example 5: acute toxicity, single gavage administration; type: in vivo
# Method: (§1) Preparation of the administration formulation of the test sample: A mixture of the compound of formula (I) and ethanol/ethyl acetate (v/v, 1/3) with a ratio of 1:1.5 was dissolved by sonication at room temperature. 2.25 equivalents of compound of formula (I) of PVP were added, and the mixture was stirred vigorously at room temperature for 20 minutes. Then, 2 equivalents of the compound of formula (I) of lactose were added, and the mixture was stirred vigorously at room temperature for 20 minutes. The mixture was dried in an oven at 50° C. and then pulverized to give a yellow powder formulation of the compound of formula (I). Then, an appropriate amount of the formulation of compound of formula (I) was weighed, and an appropriate volume of 0.5% CMC-Na aqueous solution was added. The mixture was vortexed and sonicated to mix evenly (if necessary, shear emulsification may be performed), to give an administration formulation of the test sample. The administration formulation was prepared twice a week, and 3 or 4 days of dosage was prepared each time, which was divided and stored in a 0-8° C. refrigerator for later use. When the test sample was used, a final volume mark was marked on a container, and a required amount of the test sample was weighed (weighing weight of the test sample=theoretical dosage*conversion factor) into a clean and dry container. An appropriate amount of solvent was firstly added, and the mixture was stirred and mixed thoroughly, and sonicated if necessary. The solvent was further added to the final volume mark to dilute and mix evenly, to give a visually uniform formulation. […] The administration formulation of the test sample was stable within 24 hours when being stored airtightly at room temperature in dark, and was stable within 8 days when being stored airtightly at 2° C. to 8° C. in dark.
# (§2) • Species: ICR mice • Grade: SPF grade
# (§3) Number and gender of the animals being used: 40, half male and half female;
# (§4) Body weight: The body weight of the female group was from 25.9 to 29.7 g; the body weight of the male group was from 27.7 to 30.8 g;
# (§5) Age at the time of administration: 38 to 44 days (female), 31 to 44 days (male)
# (§6) Route of Administration: Gavage Administration
# (§7) Administration frequency: once/day
# (§8) Administration period: 1 day
# (§9) The dosage was calculated based on the body weight of the animals weighed on D1 after fasting (with water access) overnight. The feed was given approximately 2 hours after drug administration.
# (§10) The administration formulation in each group was stirred at room temperature for at least 10 minutes, and suspended uniformly with visual inspection before the administration. The administration formulation was required to be continually stirred during the administration.
# (§11) Observation indicators: observation of general physical signs, body weight, food intake, animal anatomy and histopathological examination were included.
# [3] = as above; type: in vivo, ICR mice; conditions: both sexes, mouse, in vivo, po, ICR mice, single gavage administration
# Method: as §1, §2, §3, §4, §5, §6, §7, §8, §9, §10, §11
# [4] = tested on: NCI-H460 cells; assay: Colony formation assay, NCI-H460; type: cell-based, human; conditions: 50 μM and 150 μM vs 0 μM, about 2 weeks
# Method: (1) The cell status was observed under a microscope. Cells in the logarithmic growth phase were selected and digested to make a cell suspension. 20 μl of the cell suspension was taken with a pipette and added to the CountStar disposable cell counting plate for cell counting, and the counting results were recorded.
# (2) A 6-well culture plate was used for colony formation assay. Approximately 1,000 cells were inoculated into each well, and the complete culture medium was added to make up the volume to 2.5 ml per well. The cells were shaked in a figure-8 pattern to disperse the cells evenly. The next day, the compound of formula (I) at different concentrations (0 μM, 50 μM, and 150 μM) were added to the corresponding wells according to the assay plan, and incubated in an incubator at 37° C. with 5% CO2 for about 2 weeks. The culture was terminated when visible colonies appeared.
# (3) The culture plate was taken out, and the old culture medium was discarded. The cells were gently washed twice with PBS.
# (4) 500 μl of 4% paraformaldehyde fixative was added to each well to fix the cells at room temperature for 15 minutes, and then the fixative was discarded.
# (5) 500 μl of 0.1% crystal violet solution was added to each well, and cells were stained at room temperature for at least 15 minutes. The crystal violet was discarded, and the staining solution was slowly washed away with running water. […]
structure (smiles),measurement,setting,value
COC1=C(OC)C(=O)C(CCCCCCCCCCOC(=O)Cc2c(C)n(C(=O)c3ccc(Cl)cc3)c3ccc(OC)cc23)=C(C)C1=O [compound of formula (I)],proportion of S phase cells,"[1]; 10 μM, 24 h",26.03%
same,proportion of S phase cells,"[1]; 10 μM, 48 h",29.62%
same,proportion of S phase cells,"[1]; 10 μM, 72 h",21.61%
same,proportion of S phase cells,"[1]; 30 μM, 24 h",13.15%
same,proportion of S phase cells,"[1]; 30 μM, 48 h",16.02%
same,proportion of S phase cells,"[1]; 30 μM, 72 h",20.98%
same,proportion of S phase cells,"[1]; 90 μM, 24 h",9.76%
same,proportion of S phase cells,"[1]; 90 μM, 48 h",0.97%
same,proportion of S phase cells,"[1]; 90 μM, 72 h",3.36%
same,clinical observation (general physical signs),[2]; 300 mg/kg/d single gavage,no obvious abnormal symptoms
same,clinical observation (general physical signs),"[2]; 1000 mg/kg/d single gavage, animals other than the dead one",No obvious abnormal symptoms
same,body weight of male animals,"[2]; 3000 mg/kg/d single gavage, D3, vs vehicle control (P<0.05)",significant decrease
same,clinical observation (general physical signs),"[2]; 3000 mg/kg/d single gavage, return to normal on D8",piloerection symptoms from D2 to D7
same,food intake,"[2]; each dosage group (300, 1000, 3000 mg/kg/d) vs vehicle control",basically consistent
same,gross anatomy examination,"[2]; each group, naked eye observation of organs and tissues",No obvious abnormalities
same,LD50 at 1 day,[3],> 3000 mg/kg
same,MTD at 1 day,[3]; read-out: maximum tolerated dose (MTD),300 mg/kg/day
same,colony-forming ability,[4],decreased significantly
